# Laboratory results: patent US20260276643A1, “METHODS FOR PREDICTING AND IMPROVING THERAPEUTIC EFFICACY OF CANCER TREATMENTS AND METHODS FOR CANCER PROGNOSIS” (Università degli studi di Verona, priority 2023, published 2026)
# Like-named read-outs stand apart in the source and are kept apart here.
# Key:
# [1] = tested on: CLDN18 expression in DANG cells; test: CLDN18 exogenous regulation in vitro: CLDN18 staining of treated DANG cells; format: cell-based, human
# [2] = tested on: CLDN18.2 expression in cancer cells; conditions: WO2013/174510; Tureci 2019; cited from earlier work
Compound,CLDN18 expression (percentage of CLDN18+ cells) [1],CLDN18.2 expression levels in cancer cells [2],further results
"CCCCCCCCCCCCCC(=O)O[C@@H]1[C@@H](C)[C@@]2(O)[C@@H](C=C(CO)C[C@]3(O)C(=O)C(C)=C[C@@H]23)[C@@H]2C(C)(C)[C@]12OC(C)=O [PMA, Phorbol 12-myristate 13-acetate]",induced CLDN18 expression in DANG cells,,"CLDN18 expression (mean fluorescence intensity, fold change on untreated) [1]: induced CLDN18 expression in DANG cells"
"O=C1[O][Pt]2([NH][C@@H]3CCCC[C@H]3[NH]2)[O]C1=O [oxaliplatin, [(1R,2R)-cyclohexane-1,2-diamine](ethanedioato-O,O′)platinum(II)]",,upregulate existing CLDN18.2 expression levels in cancer cells,
Verteporfin,,,"CLDN18 expression (percentage of CLDN18+ cells) ([1]; DANG cells, extended experiment, FIG. 11): induced CLDN18 expression in DANG cells"
"O=c1[nH]cc(F)c(=O)[nH]1 [5-fluorouracil, 5-fluoro-1H-pyrimidine-2,4-dione]",,upregulate existing CLDN18.2 expression levels in cancer cells,
"Nc1ccn([C@@H]2O[C@H](CO)[C@@H](O)C2(F)F)c(=O)n1 [Gemcitabine, 4-amino-1-(2-deoxy-2,2-difluoro-β-D-erythro-pentofuranosyl)pyrimidin-2(1H)-one]",,upregulate existing CLDN18.2 expression levels in cancer cells,"CLDN18 expression (mean fluorescence intensity, fold change on untreated) ([1]; DANG cells, 48 hours treatment, FIG. 7): induced CLDN18 expression in DANG cells"
NC(=O)Nc1sc(-c2ccc(F)cc2)cc1C(N)=O [TPCA-1],induced CLDN18 expression in DANG cells,,
